Assay results published in patent US7718693B2, “Receptor antagonists and their methods of use” (Glaxo Group Limited, priority 2006, dated 2010).

Columns and labels:
Format in all cases: in vivo
Random Hooded rats [1] = test: Rat Model of Acute Inflammatory Pain (intraplantar FCA, weight bearing); conditions: oral; for reversal of FCA (i.pl)-induced difference in weight bearing compared to vehicle response: 24 hours after FCA injection; for ED50: FCA (i.pl) weight bearing, read-out: ED50 obtained from dose response curves
Method: Rat Model of Acute Inflammatory Pain
A useful animal model for acute inflammatory pain is the Freund's Complete Adjuvant (FCA)-induced inflammation model. A similar model using carrageenan rather than FCA is described by Clayton et al. in Br. J. Pharmacol. 1997; 120, 219P. Adult male Random Hooded rats (180-220 g) from Charles River, UK received an intraplantar (i.pl) injection of 100 μl of FCA into the plantar surface of the left hind paw. The ability to bear weight on each hindlimb (weight bearing g) was measured prior to and 24 hours after the FCA injection using a Dual Channel Weight Averager (Linton Instruments). After the post-FCA reading, rats were typically dosed orally with compound after which weight bearing measurements were recorded.

Random Hooded rats [2] = test: Rat Model of Joint Pain (intra-articular FCA, weight bearing); conditions: oral; for ED50: FCA (i.art) weight bearing, read-out: ED50 obtained from Area Under the Curve (AUC) calculations; for reversal of FCA (i.art)-induced difference in weight bearing compared to vehicle response: twice daily for 5 days, normally 13-17 days post surgery
Method: By measuring hypersensitivity post intra-articular injection of FCA into the knee, the effectiveness of a potential analgesic in reversing FCA-induced hypersensitivity can be assessed in a joint pain model of chronic inflammatory pain. Adult male Random Hooded rats (150-180 g) from Charles River, UK were briefly anaesthetised with isoflurane (3%). Rats were then injected with 150 μl of Freund's complete adjuvant (FCA) into the left knee joint (intra-articularly, i.art). The ability to bear weight on each hindlimb (weight bearing, g) was measured prior to and following surgery using a Dual Channel Weight Averager (Linton Instruments). When a stable difference in weight bearing was established between the injected and contralateral paws, rats were typically dosed orally (normally 13-17 days post surgery) with compound twice daily for 5 days with weight bearing measurements recorded daily.

Random Hooded rats [3] = test: Rat Model of Neuropathic Pain (sciatic nerve ligatures, Von Frey mechanical allodynia); conditions: oral, twice daily for 8 days, 26-33 days post surgery
Description: Rat Model of Neuropathic Pain
By placing loosely constrictive ligatures around the common sciatic nerve, a peripheral mononeuropathy can be produced, which thereby provides a rat model of neuropathic pain, Bennet et al., Pain, Vol. 33, pp 87-107 (1988). Adult male Random Hooded rats (180-200 g) from Charles River, UK were anaesthetised with isoflurane (3%). The sciatic nerve in the left leg was exposed at mid thigh level and 4 loose ligatures of Chromic 4.0 gut tied around the nerve as described by Bennet et al., Pain, Vol. 33, pp 87-107 (1988). The wound was closed and secured with staples. Sham rats underwent the same procedure but loose ligatures were not applied. The presence of mechanical (tactile) allodynia was assessed using manual application of Von Frey hair monofilaments. Monofilaments were applied in ascending order to the plantar region of the hind paw (range: 1.4 g-26 g). Each hair was applied for approx. 3-5 seconds until a paw withdrawal response was observed. After confirmation with reapplication of lower and/or higher hairs, the lowest hair to give a paw withdrawal was recorded as the threshold response (g). When stable allodynia was established rats were dosed orally 26-33 days post surgery with compound twice daily for 8 days with allodynia measurements recorded at least three times during the dosing period.

With `CN1C(=O)CC[C@H]1C(=O)NCc1ccc(Cl)cc1Cl` [Example E10, N-[(2,4-dichlorophenyl)methyl]-1-methyl-5-oxo-prolinamide] the “reversal of FCA (i.pl)-induced difference in weight bearing compared to vehicle response” value (Random Hooded rats [1]) was “significantly reversed”, the ED50 (Random Hooded rats [1]) was less than 20 mg/kg and the ED50 (Random Hooded rats [2]) was less than 20 mg/kg. For the same compound, the “reversal of FCA (i.art)-induced difference in weight bearing compared to vehicle response” value (Random Hooded rats [2]) was “significantly reversed” and the “reversal of CCl-induced mechanical allodynia compared to vehicle response” value (Random Hooded rats [3]) was “significantly reversed”.
For `CN1C(=O)CC[C@H]1C(=O)NCc1cccc(C(F)(F)F)c1Cl` [Example E51, N-{[2-chloro-3-(trifluoromethyl)phenyl]methyl}-1-methyl-5-oxoprolinamide], the “reversal of FCA (i.pl)-induced difference in weight bearing compared to vehicle response” value (Random Hooded rats [1]) was “significantly reversed”, the ED50 (Random Hooded rats [1]) was less than 20 mg/kg and the ED50 (Random Hooded rats [2]) was less than 20 mg/kg. The “reversal of FCA (i.art)-induced difference in weight bearing compared to vehicle response” value (Random Hooded rats [2]) was “significantly reversed” and the “reversal of CCl-induced mechanical allodynia compared to vehicle response” value (Random Hooded rats [3]) was “significantly reversed”.
